From article PMC10113214 (Scientific Reports, 2023) come the findings set out here.

Series [1] addresses T1, Human neutrophil elastase (Homo sapiens, UniProt P08246).
T1 construct: purchased Sigma-Aldrich
T1 sequence (P08246 30-267): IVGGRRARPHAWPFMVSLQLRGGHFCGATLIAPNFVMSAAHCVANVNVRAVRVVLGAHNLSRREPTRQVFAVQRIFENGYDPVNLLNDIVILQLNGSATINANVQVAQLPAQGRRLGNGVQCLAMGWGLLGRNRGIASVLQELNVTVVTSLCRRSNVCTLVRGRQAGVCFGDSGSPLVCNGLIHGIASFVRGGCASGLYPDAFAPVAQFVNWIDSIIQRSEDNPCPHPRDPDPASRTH
Nature of the series: Elastase enzymatic cleavage. The class given is in vitro ADME. The conditions noted are these: human neutrophil elastase 150 nM, peptide 1 mM, 30 min, 37 °C; for identified fragments of peptides after elastase digestion (most abundant MS signals): 300 rpm, 0.1 M Tris HCl, 500 mM NaCl, 0.05% Triton X-100, 20 mM CaCl2 pH 7.5, HPLC and MALDI or LC-MS. How it is done:
Human neutrophil elastase (EC No. 3.4.21.37, Sigma-Aldrich) was used to study peptide susceptibility to that enzyme. Peptides were dissolved in 0.1 M Tris HCl, 500 mM NaCl, 0.05% Triton X-100, 20 mM CaCl2 pH 7.5 buffer mixture. Peptides (final concentration 1 mM) were mixed with the enzyme (final concentration 150 nM) and incubated for 30 min. in a thermoshaker (37 °C, 300 rpm). The reaction was stopped by a 10% aqueous solution of TFA. The results were analyzed using HPLC and MALDI or LC–MS. Details of this experiment are described in the Supplementary Data.

Series [2] in a line: Transmission electron microscopy of nanofibres. The class given is physicochemical. Particulars: 1% gel in PBS diluted to 0.001%, uranyl acetate stain. The protocol: 1% gel solutions were prepared and incubated in PBS. The samples were then diluted to 0.001% concentration. A drop of solution was applied to a microcellulose membrane and stained with a 1.5% solution of uranyl acetate. The images were registered on a Tecnai Spirit BioTwin FEI Transmission Electron Microscope operating at 120 kV.

The subject of series [3] is full-thickness excisional dorsal skin wounds. The series is described as follows: Skin wound healing model in mice. The class given is in vivo, BALB/c mice. The protocol: Eight to ten-week-old BALB/c female mice were used for these experiments. All experimental procedures were approved by the Local Ethics Committee for Animal Experimentation in Bydgoszcz, Poland (Approval No. 49/2016). The study was conducted in compliance with the ARRIVE gudidelines. All animal handling methods were carried out in accordance with European Union Commission Recommendation of 18 June 2007 on guidelines for the accommodation and care of animals used for experimental and other scientific purposes. Before experiments, mice were randomized and divided into groups comprising six individuals. The mice were anaesthetized with inhaled 2–5% isoflurane. The skin on the dorsum was shaved and disinfected. After the skin was folded and raised cranially and caudally along the spine, the mouse was placed in a lateral position, and the folded skin was pierced with a 6.0 mm biopsy punch to make two through-and-through symmetrical wounds. Next, 10 µL of peptide hybrid hydrogel was applied onto each wound. Every gel was prepared in sterile conditions in biological safety cabinet, using sterile water to final concentration of 10 mg/ml (1%). Then the gels were incubated for 24 h allowing it to assemble. Control mice were treated with RADA16-I. The wounds were covered with a transparent Tegaderm TM dressing to protect the wound from outer environment of the cage and other animals. It was fastened with an adhesive plaster wrapped around the animal’s torso. The peptide hybrids were applied daily to the wounds for five consecutive days. The dressings were replaced daily in the first five days of the experiment and every second day until the end of the second week of the experiment. To measure the wound areas the wounds were photographed with a ruler placed next to the injury site. Wound areas were calculated using the computer-assisted image analysis program ImageJ[51].

Take `CC(=O)N[C@@H](CCCNC(=N)N)C(=O)N[C@@H](C)C(=O)N[C@@H](CC(=O)O)C(=O)N[C@@H](C)C(=O)N[C@@H](CCCNC(=N)N)C(=O)N[C@@H](C)C(=O)N[C@@H](CC(=O)O)C(=O)N[C@@H](C)C(=O)N[C@@H](CCCNC(=N)N)C(=O)N[C@@H](C)C(=O)N[C@@H](CC(=O)O)C(=O)N[C@@H](C)C(=O)N[C@@H](CCCNC(=N)N)C(=O)N[C@@H](C)C(=O)N[C@@H](CC(=O)O)C(=O)N[C@@H](C)C(=O)NCC(=O)NCC(=O)NCC(=O)N[C@@H](C)C(=O)N[C@@H](C)C(=O)N1CCC[C@H]1C(=O)N[C@H](C(=O)NCC(=O)NCC(=O)NCC(=O)N[C@@H](CCCCN)C(=O)NCC(=O)N[C@@H](Cc1c[nH]cn1)C(=O)N[C@@H](CCCCN)C(N)=O)C(C)C` [RADA-KGHK, Ac-(Arg-Ala-Asp-Ala)4-Gly-Gly-Gly-Ala-Ala-Pro-Val-Gly-Gly-Gly-Lys-Gly-His-Lys-NH2]: the figures for the “identified fragments of peptides after elastase digestion (most abundant MS signals)” value in series [1] (fragment Ac-(RADA)4-GGG-AAPV-COOH), in series [1] (fragment NH2-APV-GGG-KGHK-NH2) and in series [1] (fragment NH2-PV-GGG-KGHK-NH2) were “Ac-(RADA)4-GGG-AAPV-COOH”, “NH2-APV-GGG-KGHK-NH2” and “NH2-PV-GGG-KGHK-NH2”, respectively. Also, the “main / predominant fragments of elastase digestion” value in series [1] (pH 7.5 buffer, HPLC, mass spectrometry) is on record as “Ala^21Pro^22Val^23Gly^24Gly^25Gly^26Lys^27Gly^28His^29Lys^30”. Moreover, the “fibre thickness (TEM)” value in series [2] is reported as “about 3 nm”. In series [3] (BALB/c female mice, 6.0 mm punch dorsal wounds, 10 µL 1% hydrogel topically daily for five days, n = 6, SD), the “wound closure on day 7” value is recorded as 44.4 ± 4.9%. In series [3] (BALB/c mice, 1% hydrogel topically, day 2 up to day 14), the “wound healing compared to RADA16-I” value was “Accelerated wound healing”.
